Active and inactive are the calls of the source. No cut-off for these calls is given here.
Assays:
[1] = molecular target: T1, 3',5'-cyclic-AMP phosphodiesterase 4B (Homo sapiens, UniProt Q07343); assay: Inhibition of PDE4B (unknown origin) using [3H]cAMP as substrate at 10 uM incubated for 30 mins by scintillation proximity assay relative to control
[2] = molecular target: T1, 3',5'-cyclic-AMP phosphodiesterase 4B; assay: Inhibition of PDE4B (unknown origin) using [3H]cAMP as substrate incubated for 30 mins by scintillation proximity assay
[3] = molecular target: 3',5'-cyclic-AMP phosphodiesterase 4D (Homo sapiens, UniProt Q08499); assay: Inhibition of PDE4D (unknown origin)
Chain of 3',5'-cyclic-AMP phosphodiesterase 4D (Q08499 whole entry): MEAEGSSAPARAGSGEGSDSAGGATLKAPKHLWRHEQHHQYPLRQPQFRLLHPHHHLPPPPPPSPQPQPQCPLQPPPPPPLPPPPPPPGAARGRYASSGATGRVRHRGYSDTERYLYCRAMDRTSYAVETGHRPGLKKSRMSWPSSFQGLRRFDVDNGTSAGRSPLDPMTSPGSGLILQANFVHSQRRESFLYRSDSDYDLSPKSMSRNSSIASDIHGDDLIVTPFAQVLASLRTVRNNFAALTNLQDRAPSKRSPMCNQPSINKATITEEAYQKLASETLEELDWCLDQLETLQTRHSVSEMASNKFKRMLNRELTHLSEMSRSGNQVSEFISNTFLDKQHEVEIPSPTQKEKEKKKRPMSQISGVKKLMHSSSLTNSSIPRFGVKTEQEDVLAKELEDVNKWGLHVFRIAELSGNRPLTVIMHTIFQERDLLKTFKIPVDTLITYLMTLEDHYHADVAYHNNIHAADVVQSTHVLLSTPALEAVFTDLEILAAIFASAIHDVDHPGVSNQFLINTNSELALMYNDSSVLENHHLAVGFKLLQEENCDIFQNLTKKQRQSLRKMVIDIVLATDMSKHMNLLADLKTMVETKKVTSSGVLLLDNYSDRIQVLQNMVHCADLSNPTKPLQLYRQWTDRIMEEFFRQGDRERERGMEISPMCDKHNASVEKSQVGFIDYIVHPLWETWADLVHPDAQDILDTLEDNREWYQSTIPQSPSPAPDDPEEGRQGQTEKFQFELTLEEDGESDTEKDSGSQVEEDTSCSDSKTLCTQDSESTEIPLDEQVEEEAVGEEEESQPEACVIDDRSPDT

Homo sapiens = organism: Homo sapiens; assay: Selectivity ratio of IC50 for PDE4D (unknown origin) to IC50 for PDE4B (unknown origin)
[4] = molecular target: Dual specificity calcium/calmodulin-dependent 3',5'-cyclic nucleotide phosphodiesterase 1A (Homo sapiens) (UniProt P54750); assay: Inhibition of PDE1A1 (unknown origin) at 10 uM relative to control
[5] = molecular target: Dual specificity calcium/calmodulin-dependent 3',5'-cyclic nucleotide phosphodiesterase 1B (Homo sapiens) (UniProt Q01064); assay: Inhibition of PDE1B (unknown origin) at 10 uM relative to control
[6] = molecular target: Dual specificity calcium/calmodulin-dependent 3',5'-cyclic nucleotide phosphodiesterase 1C (Homo sapiens) (UniProt Q14123); assay: Inhibition of PDE1C (unknown origin) at 10 uM relative to control
[7] = molecular target: cGMP-dependent 3',5'-cyclic phosphodiesterase (Homo sapiens) (UniProt O00408); assay: Inhibition of PDE2A1 (unknown origin) at 10 uM relative to control
[8] = molecular target: cGMP-inhibited 3',5'-cyclic phosphodiesterase 3A (Homo sapiens) (UniProt Q14432); assay: Inhibition of PDE3A (unknown origin) at 10 uM relative to control
[9] = molecular target: cGMP-inhibited 3',5'-cyclic phosphodiesterase 3B (Homo sapiens) (UniProt Q13370); assay: Inhibition of PDE3B (unknown origin) at 10 uM relative to control
[10] = molecular target: cGMP-specific 3',5'-cyclic phosphodiesterase (Homo sapiens) (UniProt O76074); assay: Inhibition of PDE5A1 (unknown origin) at 10 uM relative to control
[11] = molecular target: Cone cGMP-specific 3',5'-cyclic phosphodiesterase subunit alpha' (Homo sapiens) (UniProt P51160); assay: Inhibition of PDE6C (unknown origin) at 10 uM relative to control
[12] = molecular target: High affinity 3',5'-cyclic-AMP phosphodiesterase 7A (Homo sapiens) (UniProt Q13946); assay: Inhibition of PDE7A1 (unknown origin) at 10 uM relative to control
Chain of High affinity 3',5'-cyclic-AMP phosphodiesterase 7A (Homo sapiens) (Q13946 whole entry): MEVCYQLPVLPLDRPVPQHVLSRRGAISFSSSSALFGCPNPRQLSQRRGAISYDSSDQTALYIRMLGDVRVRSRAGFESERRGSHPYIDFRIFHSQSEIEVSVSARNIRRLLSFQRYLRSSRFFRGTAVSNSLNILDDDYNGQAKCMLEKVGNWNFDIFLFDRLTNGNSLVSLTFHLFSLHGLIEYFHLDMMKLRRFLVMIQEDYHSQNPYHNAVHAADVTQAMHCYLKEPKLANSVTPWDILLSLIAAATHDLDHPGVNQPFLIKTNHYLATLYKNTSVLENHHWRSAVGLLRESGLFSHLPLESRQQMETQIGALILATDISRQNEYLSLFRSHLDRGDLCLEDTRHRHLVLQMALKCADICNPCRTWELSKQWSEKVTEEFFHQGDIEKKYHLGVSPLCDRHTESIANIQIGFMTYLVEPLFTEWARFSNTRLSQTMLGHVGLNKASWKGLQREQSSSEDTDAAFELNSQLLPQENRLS

[13] = molecular target: 3',5'-cyclic-AMP phosphodiesterase 7B (Homo sapiens) (UniProt Q9NP56); assay: Inhibition of PDE7B (unknown origin) at 10 uM relative to control
Chain of 3',5'-cyclic-AMP phosphodiesterase 7B (Homo sapiens) (Q9NP56 whole entry): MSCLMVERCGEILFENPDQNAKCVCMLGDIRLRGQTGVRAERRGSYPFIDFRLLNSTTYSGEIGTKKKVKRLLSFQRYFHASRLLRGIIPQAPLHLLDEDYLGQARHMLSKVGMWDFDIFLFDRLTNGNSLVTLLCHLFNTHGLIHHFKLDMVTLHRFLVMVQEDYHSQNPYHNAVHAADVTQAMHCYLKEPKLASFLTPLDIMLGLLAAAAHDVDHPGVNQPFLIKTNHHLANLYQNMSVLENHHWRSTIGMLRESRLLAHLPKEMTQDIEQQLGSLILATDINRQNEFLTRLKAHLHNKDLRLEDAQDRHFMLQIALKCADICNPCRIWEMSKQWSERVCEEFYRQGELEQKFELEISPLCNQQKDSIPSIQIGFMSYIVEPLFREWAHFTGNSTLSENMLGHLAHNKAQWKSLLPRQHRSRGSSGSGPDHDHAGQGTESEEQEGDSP

[14] = molecular target: High affinity cAMP-specific and IBMX-insensitive 3',5'-cyclic phosphodiesterase 8A (Homo sapiens) (UniProt O60658); assay: Inhibition of PDE8A1 (unknown origin) at 10 uM relative to control
[15] = molecular target: High affinity cGMP-specific 3',5'-cyclic phosphodiesterase 9A (Homo sapiens) (UniProt O76083); assay: Inhibition of PDE9A2 (unknown origin) at 10 uM relative to control
[16] = molecular target: cAMP and cAMP-inhibited cGMP 3',5'-cyclic phosphodiesterase 10A (Homo sapiens) (UniProt Q9Y233); assay: Inhibition of PDE10A1 (unknown origin) at 10 uM relative to control
Chain of cAMP and cAMP-inhibited cGMP 3',5'-cyclic phosphodiesterase 10A (Homo sapiens) (Q9Y233 whole entry): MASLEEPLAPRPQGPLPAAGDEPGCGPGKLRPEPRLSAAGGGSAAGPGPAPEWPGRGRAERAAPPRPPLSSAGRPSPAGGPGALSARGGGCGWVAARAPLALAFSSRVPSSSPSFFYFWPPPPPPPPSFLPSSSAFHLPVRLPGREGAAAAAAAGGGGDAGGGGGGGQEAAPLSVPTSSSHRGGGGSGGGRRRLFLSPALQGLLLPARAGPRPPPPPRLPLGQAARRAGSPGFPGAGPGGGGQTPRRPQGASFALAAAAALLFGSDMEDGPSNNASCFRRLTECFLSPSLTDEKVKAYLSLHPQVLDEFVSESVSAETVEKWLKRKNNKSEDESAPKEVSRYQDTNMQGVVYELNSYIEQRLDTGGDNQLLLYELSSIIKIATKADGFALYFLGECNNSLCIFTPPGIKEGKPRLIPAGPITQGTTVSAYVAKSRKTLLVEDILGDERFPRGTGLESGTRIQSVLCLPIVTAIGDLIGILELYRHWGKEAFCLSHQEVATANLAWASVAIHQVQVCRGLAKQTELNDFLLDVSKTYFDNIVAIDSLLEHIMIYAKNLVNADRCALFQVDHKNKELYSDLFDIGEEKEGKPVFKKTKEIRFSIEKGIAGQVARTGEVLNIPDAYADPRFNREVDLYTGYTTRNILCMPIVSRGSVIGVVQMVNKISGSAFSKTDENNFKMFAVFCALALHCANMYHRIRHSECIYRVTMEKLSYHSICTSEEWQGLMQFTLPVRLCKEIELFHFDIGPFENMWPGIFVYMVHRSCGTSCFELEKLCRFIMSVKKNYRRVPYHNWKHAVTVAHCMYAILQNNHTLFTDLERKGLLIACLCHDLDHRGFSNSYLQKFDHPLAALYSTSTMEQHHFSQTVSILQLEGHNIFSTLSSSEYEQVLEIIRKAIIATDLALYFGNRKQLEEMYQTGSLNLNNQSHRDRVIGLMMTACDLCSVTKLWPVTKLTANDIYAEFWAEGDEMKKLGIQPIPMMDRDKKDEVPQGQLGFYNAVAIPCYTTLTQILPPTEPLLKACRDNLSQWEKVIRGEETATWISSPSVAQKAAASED

[17] = molecular target: cAMP and cAMP-inhibited cGMP 3',5'-cyclic phosphodiesterase 10A (Homo sapiens) (UniProt Q9Y233); assay: Inhibition of PDE10A2 (unknown origin) at 10 uM relative to control
[18] = molecular target: Dual 3',5'-cyclic-AMP and -GMP phosphodiesterase 11A (Homo sapiens) (UniProt Q9HCR9); assay: Inhibition of PDE11A4 (unknown origin) at 10 uM relative to control
Chain of Dual 3',5'-cyclic-AMP and -GMP phosphodiesterase 11A (Homo sapiens) (Q9HCR9 whole entry, looked up): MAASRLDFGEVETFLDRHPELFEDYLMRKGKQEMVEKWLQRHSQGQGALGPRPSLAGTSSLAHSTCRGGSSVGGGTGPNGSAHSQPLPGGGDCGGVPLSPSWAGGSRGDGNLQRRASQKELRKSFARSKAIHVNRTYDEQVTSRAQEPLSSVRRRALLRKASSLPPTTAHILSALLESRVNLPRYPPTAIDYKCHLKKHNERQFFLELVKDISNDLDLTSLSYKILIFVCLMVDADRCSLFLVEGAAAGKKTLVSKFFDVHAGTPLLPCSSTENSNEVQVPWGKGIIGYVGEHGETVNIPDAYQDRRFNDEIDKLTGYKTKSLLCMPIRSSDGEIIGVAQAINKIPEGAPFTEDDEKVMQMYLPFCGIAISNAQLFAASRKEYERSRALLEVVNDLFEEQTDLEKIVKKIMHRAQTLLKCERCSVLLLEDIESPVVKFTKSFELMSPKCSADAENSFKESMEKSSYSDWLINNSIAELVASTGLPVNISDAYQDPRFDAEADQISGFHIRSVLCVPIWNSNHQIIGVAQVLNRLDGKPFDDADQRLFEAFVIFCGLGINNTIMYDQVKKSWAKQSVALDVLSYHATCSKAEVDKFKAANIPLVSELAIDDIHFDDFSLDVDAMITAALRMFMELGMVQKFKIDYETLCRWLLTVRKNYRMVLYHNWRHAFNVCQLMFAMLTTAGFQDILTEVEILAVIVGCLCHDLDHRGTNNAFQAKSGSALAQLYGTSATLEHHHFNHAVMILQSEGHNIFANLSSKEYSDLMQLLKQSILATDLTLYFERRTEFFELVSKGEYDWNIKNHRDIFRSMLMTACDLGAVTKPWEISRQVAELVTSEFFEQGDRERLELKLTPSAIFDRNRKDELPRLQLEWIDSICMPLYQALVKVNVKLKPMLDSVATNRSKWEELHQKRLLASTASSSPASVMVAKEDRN

[19] = molecular target: Tumor necrosis factor (Homo sapiens) (UniProt P01375); assay: Inhibition of TNF-alpha (unknown origin) at 10 uM relative to control
Chain of Tumor necrosis factor (Homo sapiens) (P01375 whole entry): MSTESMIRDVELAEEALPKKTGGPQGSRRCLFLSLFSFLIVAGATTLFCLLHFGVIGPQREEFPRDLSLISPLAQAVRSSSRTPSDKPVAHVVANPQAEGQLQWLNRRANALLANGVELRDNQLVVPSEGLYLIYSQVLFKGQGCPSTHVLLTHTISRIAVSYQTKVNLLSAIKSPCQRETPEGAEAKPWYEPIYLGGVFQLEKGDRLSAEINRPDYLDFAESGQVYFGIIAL

[20] = molecular target: Tumor necrosis factor (Homo sapiens) (UniProt P01375); assay: Inhibition of TNF-alpha (unknown origin) at 3 uM relative to control
[21] = molecular target: Tumor necrosis factor (Homo sapiens) (UniProt P01375); assay: Inhibition of TNF-alpha (unknown origin) at 1 uM relative to control
[22] = molecular target: Tumor necrosis factor (Homo sapiens) (UniProt P01375); assay: Inhibition of TNF-alpha (unknown origin) at 0.3 uM relative to control
Rattus norvegicus [23] = assay: Antiinflammatory activity against complete Freund's adjuvant induced ip dosed rat model of arthritis assessed as reduction in paw swelling measured on day 21 by macroscopic analysis; type: functional, organism-based; details: time 21.0 day
Rattus norvegicus [24] = assay: Antiinflammatory activity against complete Freund's adjuvant induced rat model of arthritis assessed as reduction in paw volume at 30 mg/kg, ip measured on day 21 by macroscopic analysis; type: functional, organism-based; details: time 21.0 day
Rattus norvegicus [25] = assay: Antiinflammatory activity against complete Freund's adjuvant induced rat model of arthritis assessed as improvement in intestinal absorption at 30 mg/kg, ip measured on day 21; type: functional, organism-based; details: time 21.0 day
Rattus norvegicus [26] = assay: Antiinflammatory activity against complete Freund's adjuvant induced rat model of arthritis assessed as decrease in pathological changes at 30 mg/kg, ip measured on day 21 by H and E staining based histopathological analysis; type: functional, organism-based; details: time 21.0 day
Rattus norvegicus [27] = assay: Antiinflammatory activity against complete Freund's adjuvant induced rat model of arthritis assessed as reduction in joint degeneration changes at 30 mg/kg, ip measured on day 21 by H and E staining based histopathological analysis; type: functional, organism-based; details: time 21.0 day
Rattus norvegicus [28] = assay: Antiinflammatory activity against complete Freund's adjuvant induced rat model of arthritis assessed as decrease in TNF-alpha expression at 10 to 30 mg/kg, ip by immunohistochemical staining based assay; type: functional, organism-based; details: dose 10-30 mg/kg
Rattus norvegicus [29] = assay: Antiinflammatory activity against complete Freund's adjuvant induced rat model of arthritis assessed as effect on IL-6 expression at 10 to 30 mg/kg, ip by immunohistochemical staining based assay; type: functional, organism-based; details: dose 10-30 mg/kg
RAW264.7 = assay: Cytotoxicity against mouse RAW264.7 cells assessed as reduction in cell viability measured after 48 hrs by MTT assay; type: cell-based; details: RAW264.7, 48 h
[30] = Toxicity in zebrafish embryos assessed as teratogenicity at 1 to 100 uM; design: species or system Danio rerio; details: in vivo, dose 1-100 µM
[31] = Hepatotoxicity in zebrafish embryos assessed as effect on liver size at 1 to 100 uM; type: toxicity, Danio rerio; details: in vivo, dose 1-100 µM
[32] = Hepatotoxicity in zebrafish embryos assessed as liver degeneration at 1 to 100 uM; type: toxicity, Danio rerio; details: in vivo, dose 1-100 µM
[33] = Cardiac toxicity in zebrafish embryos assessed as effect on heart rate at 1 to 100 uM; design: species or system Danio rerio; details: in vivo, dose 1-100 µM
[34] = Toxicity in zebrafish embryos assessed as induction of apoptosis at 1 to 100 uM; design: species or system Danio rerio; details: dose 1-100 µM
Rattus norvegicus [35] = assay: Antiinflammatory activity against complete Freund's adjuvant induced rat model of arthritis assessed as reduction in paw volume at 1 mg/kg, po administered once daily measured on day 21 by macroscopic analysis; type: functional, organism-based; details: time 21.0 day
Rattus norvegicus [36] = assay: Antiinflammatory activity against complete Freund's adjuvant induced rat model of arthritis assessed as reduction in joint structure deformity at 1 mg/kg, ip measured on day 21 by radiographic analysis; type: functional, organism-based; details: time 21.0 day
[37] = molecular target: Tumor necrosis factor (Homo sapiens) (UniProt P01375); assay: Inhibition of TNF-alpha (unknown origin) at 0.1 uM relative to control

T1 sequence (Q07343 whole entry): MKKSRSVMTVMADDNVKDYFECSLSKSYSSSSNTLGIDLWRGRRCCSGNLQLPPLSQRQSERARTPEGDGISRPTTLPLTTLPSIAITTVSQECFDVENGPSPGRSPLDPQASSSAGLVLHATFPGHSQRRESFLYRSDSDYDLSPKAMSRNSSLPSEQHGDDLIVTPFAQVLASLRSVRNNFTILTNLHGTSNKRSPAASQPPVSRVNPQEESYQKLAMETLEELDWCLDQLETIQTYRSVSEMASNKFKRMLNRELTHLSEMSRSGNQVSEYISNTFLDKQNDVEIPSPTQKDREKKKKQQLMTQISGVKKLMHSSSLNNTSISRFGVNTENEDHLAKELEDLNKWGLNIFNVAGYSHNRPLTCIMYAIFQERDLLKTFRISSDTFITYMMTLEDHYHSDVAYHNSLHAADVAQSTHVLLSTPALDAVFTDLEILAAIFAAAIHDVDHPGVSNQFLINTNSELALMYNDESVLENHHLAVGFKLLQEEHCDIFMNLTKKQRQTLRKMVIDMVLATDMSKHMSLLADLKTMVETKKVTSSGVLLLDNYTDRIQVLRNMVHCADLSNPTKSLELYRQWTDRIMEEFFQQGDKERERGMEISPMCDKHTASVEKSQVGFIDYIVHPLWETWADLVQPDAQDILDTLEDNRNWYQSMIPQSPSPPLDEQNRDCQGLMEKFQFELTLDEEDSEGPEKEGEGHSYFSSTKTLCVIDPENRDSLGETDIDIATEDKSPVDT

Compound: C=CCc1c(-c2cccc(NS(=O)(=O)c3cccs3)c2)oc(=O)c2ccccc12
- inhibition [1]: 85.9%
- IC50 [2]: 1760 nM

Compound: C=CCc1c(-c2ccc(NS(C)(=O)=O)cc2)oc(=O)c2ccc(Cl)cc12
- inhibition [1]: 56%

Compound: C=CCc1c(-c2ccc(NC(=O)c3ccccc3)cc2)oc(=O)c2ccccc12
- inhibition [1]: 46.5%

Compound: C=CCc1c(-c2cccc(NS(=O)(=O)c3ccc(C(F)(F)F)cc3)c2)oc(=O)c2ccccc12
- inhibition [1]: 55.3%

Compound: C=CCc1c(-c2ccc(NS(=O)(=O)c3ccc(C)cc3)cc2)oc(=O)c2cc(F)ccc12
- inhibition [1]: 94%
- IC50 [2]: 2360 nM

Compound: C=CCc1c(-c2cccc(NS(C)(=O)=O)c2)oc(=O)c2ccccc12
- inhibition [1]: 55.8%

Compound: C=CCc1c(-c2cccc(NS(=O)(=O)c3cccs3)c2)oc(=O)c2cc(F)ccc12
- inhibition [1]: 96%
- IC50 [2]: 540 nM
- IC50 [3]: 1340 nM
- Ratio IC50 (Homo sapiens): 2.5
- inhibition [4]: 21%
- inhibition [5]: 18%
- inhibition [6]: 24%
- inhibition [7]: 9%
- inhibition [8]: 11%
- inhibition [9]: 7%
- inhibition [10]: 8%
- inhibition [11]: 10%
- inhibition [12]: 6%
- inhibition [13]: 3%
- inhibition [14]: 2%
- inhibition [15]: 8%
- inhibition [16]: 12%
- inhibition [17]: 19%
- inhibition [18]: 11%
- inhibition [19]: 65.5%
- inhibition [20]: 45.6%
- inhibition [21]: 40.3%
- inhibition [22]: 30.9%
- Activity (Rattus norvegicus [23]): Dose-Dependent Effect
- Activity (Rattus norvegicus [24]): Active
- Activity (Rattus norvegicus [25]): Active
- Activity (Rattus norvegicus [26]): Active
- Activity (Rattus norvegicus [27]): Active
- Activity (Rattus norvegicus [28]): Active
- Activity (Rattus norvegicus [29]): inactive
- IC50 (RAW264.7): > 100000 nM
- Activity [30]: Non-Toxic
- Activity [31]: Non-Toxic
- Activity [32]: Non-Toxic
- Activity [33]: Non-Toxic
- Activity [34]: Non-Toxic

Compound: C=CCc1c(-c2cccc(NS(=O)(=O)c3ccccc3)c2)oc(=O)c2ccccc12
- inhibition [1]: 82.9%
- IC50 [2]: 1240 nM

Compound: CN(Cc1cnc2nc(N)nc(N)c2n1)c1ccc(C(=O)N[C@@H](CCC(=O)O)C(=O)O)cc1
- Activity (Rattus norvegicus [35]): Active
- Activity (Rattus norvegicus [36]): inactive
- Activity (Rattus norvegicus [28]): Active

Compound: C=CCc1c(-c2ccc(NS(=O)(=O)c3ccccc3)cc2)oc(=O)c2ccccc12
- inhibition [1]: 87.6%
- IC50 [2]: 3910 nM

Compound: C=CCc1c(-c2cccc(NS(=O)(=O)c3ccccc3)c2)oc(=O)c2cc(F)ccc12
- inhibition [1]: 82.2%
- IC50 [2]: 430 nM
- IC50 [3]: 900 nM
- Ratio IC50 (Homo sapiens): 2

Compound: C=CCc1c(-c2cccc(NS(C)(=O)=O)c2)oc(=O)c2cc(F)ccc12
- inhibition [1]: 90.9%
- IC50 [2]: 1940 nM

Compound: C=CCc1c(-c2cccc(NS(=O)(=O)c3ccc(C)cc3)c2)oc(=O)c2cc(F)ccc12
- inhibition [1]: 79.7%
- IC50 [2]: 3040 nM

Compound: C=CCc1c(-c2cccc(NS(=O)(=O)c3ccccc3)c2)oc(=O)c2ccc(Cl)cc12
- inhibition [1]: 81.2%
- IC50 [2]: 4780 nM

Compound: C=CCc1c(-c2cccc(NS(=O)(=O)c3ccc(OC)cc3)c2)oc(=O)c2ccccc12
- inhibition [1]: 80%
- IC50 [2]: 3330 nM

Compound: C=CCc1c(-c2cccc(NS(=O)(=O)c3ccc(C)cc3)c2)oc(=O)c2ccccc12
- inhibition [1]: 77.8%
- IC50 [2]: 2070 nM

Compound: C=CCc1c(-c2ccc(NS(=O)(=O)c3ccc(C)cc3)cc2)oc(=O)c2ccccc12
- inhibition [1]: 63.5%

Compound: C=CCc1c(-c2cccc(NS(=O)(=O)c3cccs3)c2)oc(=O)c2ccc(Cl)cc12
- inhibition [1]: 75.7%
- IC50 [2]: 4010 nM

Compound: C=CCc1c(-c2cccc(NS(C)(=O)=O)c2)oc(=O)c2ccc(Cl)cc12
- inhibition [1]: 62.2%

Compound: C=CCc1c(-c2cccc(NC(=O)c3ccccc3)c2)oc(=O)c2ccccc12
- inhibition [1]: 72.6%

Compound: C=CCc1c(-c2cccc(NC(=O)c3ccccc3)c2)oc(=O)c2cc(F)ccc12
- inhibition [1]: 74.6%

Compound: C=CCc1c(-c2ccc(NS(=O)(=O)c3ccccc3)cc2)oc(=O)c2cc(F)ccc12
- inhibition [1]: 94.4%
- IC50 [2]: 1910 nM

Compound: C=CCc1c(-c2ccc(NS(C)(=O)=O)cc2)oc(=O)c2ccccc12
- inhibition [1]: 54.9%

Compound: COc1ccc(C2CNC(=O)C2)cc1OC1CCCC1 (stereo unspecified)
- inhibition [1]: 77.2%
- inhibition [37]: 50.3%

From ChEMBL document CHEMBL4842324, “PdCl2-catalyzed synthesis of a new class of isocoumarin derivatives containing aminosulfonyl / aminocarboxamide moiety: First identification of a isocoumarin based PDE4 inhibitor” (Eur J Med Chem, 2021)
